For one assay, the target named is T1, Mer (Homo sapiens, UniProt Q12866).
T1 construct: purchased Life Technologies
T1 sequence (Q12866 21-999): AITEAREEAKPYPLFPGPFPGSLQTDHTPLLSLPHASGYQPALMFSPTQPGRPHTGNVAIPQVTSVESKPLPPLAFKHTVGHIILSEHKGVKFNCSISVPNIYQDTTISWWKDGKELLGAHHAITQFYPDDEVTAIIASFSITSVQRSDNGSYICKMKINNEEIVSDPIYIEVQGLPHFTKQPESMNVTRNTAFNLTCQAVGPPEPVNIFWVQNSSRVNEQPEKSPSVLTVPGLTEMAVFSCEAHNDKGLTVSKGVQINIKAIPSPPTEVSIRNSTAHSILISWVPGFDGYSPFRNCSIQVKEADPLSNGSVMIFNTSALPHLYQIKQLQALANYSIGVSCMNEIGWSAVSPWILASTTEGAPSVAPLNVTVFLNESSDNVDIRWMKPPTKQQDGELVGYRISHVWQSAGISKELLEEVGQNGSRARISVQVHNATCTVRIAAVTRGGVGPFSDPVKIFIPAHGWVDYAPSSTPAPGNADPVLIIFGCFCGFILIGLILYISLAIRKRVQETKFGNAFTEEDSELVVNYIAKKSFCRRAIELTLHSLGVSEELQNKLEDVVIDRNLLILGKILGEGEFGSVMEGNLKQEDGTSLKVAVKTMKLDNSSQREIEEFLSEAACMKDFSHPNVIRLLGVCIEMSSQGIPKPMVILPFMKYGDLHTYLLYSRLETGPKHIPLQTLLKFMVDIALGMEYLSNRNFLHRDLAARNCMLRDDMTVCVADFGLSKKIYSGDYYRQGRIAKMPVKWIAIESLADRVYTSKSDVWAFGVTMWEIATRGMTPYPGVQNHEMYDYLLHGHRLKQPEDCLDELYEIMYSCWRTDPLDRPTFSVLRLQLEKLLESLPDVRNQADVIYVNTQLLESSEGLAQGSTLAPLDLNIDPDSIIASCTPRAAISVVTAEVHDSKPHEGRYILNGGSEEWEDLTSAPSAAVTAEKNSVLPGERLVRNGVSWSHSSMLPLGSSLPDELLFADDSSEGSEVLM
Put plainly: LanthaScreen Eu kinase binding assay, Mer. The following applies: Tracer 236. Here is the method:
(§1) LanthaScreen® Eu Kinase Binding assays were conducted at Life Technologies using the manufacturer's specifications for each kinase indicated.
(§2) Briefly, the principle behind this assay is based upon the binding and displacement of an Alexa Fluor 647-labeled tracer to the kinase of interest. Binding of the tracer to the kinase is detected using an EU-labeled anti-tag antibody. Simultaneous binding of both the tracer and antibody to the kinase gives rise to a FRET-signal. Binding of an inhibitor to the kinase competes for binding with the tracer, resulting in a loss of FRET-signal.
(§3) Binding Assay Protocol for AXL, Mer, Tyro3 and Met
(§4) A given compound was diluted in DMSO to make a stock compound solution. The stock compound solution was serially diluted over eight steps in DMSO. Each diluted compound solution in DMSO was diluted in kinase buffer. Afterwards four kinds of working solution were prepared. First, Tracer-Working solution consists of Tracer 236 and Kinase Buffer. Second, Axl, Mer, Tyro3 or Met/anti-GST-AB-Working solution contained one of the kinases Axl, Mer, Tyro3, Met or anti-GST-AB (=anti glutathione-S-transferase antibody) in Kinase Buffer. Third, anti-GST-AB-Working solution was made with anti-GST-AB and Kinase Buffer. Last, in the DMSO-Working solution DMSO was added to Kinase Buffer to a final concentration to 3%. Each of the four kinds of working solutions were separately added to the assay plate and then incubated for 1 h at room temperature. After incubation, the assay plate was measured with respect to the FRET-Signal with the EnVision (Perkin Elmer) using the program LanthaHTRF-Assay. Data evaluation was done in the Quattro Workflow software.
(§5) Table 1 summarises the results obtained for AXL, Mer and Tyro3-kinases binding assays; table 2 summarises the results obtained for the Met kinase binding assay.

A further assay addresses T2, Axl (Homo sapiens, UniProt P30530).
T2 construct: purchased Life Technologies
T2 sequence (P30530 26-894): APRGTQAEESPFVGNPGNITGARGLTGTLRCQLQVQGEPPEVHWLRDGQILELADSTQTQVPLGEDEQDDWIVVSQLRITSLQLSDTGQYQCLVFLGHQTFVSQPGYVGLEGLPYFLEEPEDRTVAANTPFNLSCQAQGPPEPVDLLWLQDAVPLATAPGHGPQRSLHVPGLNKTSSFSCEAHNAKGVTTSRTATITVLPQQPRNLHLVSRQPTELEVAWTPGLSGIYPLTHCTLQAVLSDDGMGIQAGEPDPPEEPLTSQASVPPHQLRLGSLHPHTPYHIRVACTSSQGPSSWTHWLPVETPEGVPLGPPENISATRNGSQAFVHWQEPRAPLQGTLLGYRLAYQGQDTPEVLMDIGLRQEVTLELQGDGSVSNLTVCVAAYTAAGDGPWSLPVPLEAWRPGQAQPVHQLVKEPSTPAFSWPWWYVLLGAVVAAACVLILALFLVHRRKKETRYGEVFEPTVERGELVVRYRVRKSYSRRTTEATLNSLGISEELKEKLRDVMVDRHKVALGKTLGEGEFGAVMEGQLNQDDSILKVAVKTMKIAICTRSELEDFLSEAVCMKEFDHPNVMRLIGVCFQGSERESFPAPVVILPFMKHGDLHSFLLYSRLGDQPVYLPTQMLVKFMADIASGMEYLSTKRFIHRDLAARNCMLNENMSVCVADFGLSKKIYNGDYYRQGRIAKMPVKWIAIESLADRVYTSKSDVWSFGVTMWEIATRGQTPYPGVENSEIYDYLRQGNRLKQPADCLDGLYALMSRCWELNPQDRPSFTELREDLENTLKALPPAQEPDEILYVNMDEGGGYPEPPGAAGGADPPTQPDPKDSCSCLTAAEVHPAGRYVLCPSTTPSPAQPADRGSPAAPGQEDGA
Briefly: LanthaScreen Eu kinase binding assay, Axl. The conditions noted are these: Tracer 236. Here is the method: as §1, §2, §3, §4, §5
On the technique in general: Time-resolved FRET reads energy transfer from a long-lived donor to a nearby acceptor.

Another assay concerns the target T3, TYRO3 (Homo sapiens, UniProt Q06418).
T3 construct: purchased Life Technologies
T3 sequence (Q06418 41-890): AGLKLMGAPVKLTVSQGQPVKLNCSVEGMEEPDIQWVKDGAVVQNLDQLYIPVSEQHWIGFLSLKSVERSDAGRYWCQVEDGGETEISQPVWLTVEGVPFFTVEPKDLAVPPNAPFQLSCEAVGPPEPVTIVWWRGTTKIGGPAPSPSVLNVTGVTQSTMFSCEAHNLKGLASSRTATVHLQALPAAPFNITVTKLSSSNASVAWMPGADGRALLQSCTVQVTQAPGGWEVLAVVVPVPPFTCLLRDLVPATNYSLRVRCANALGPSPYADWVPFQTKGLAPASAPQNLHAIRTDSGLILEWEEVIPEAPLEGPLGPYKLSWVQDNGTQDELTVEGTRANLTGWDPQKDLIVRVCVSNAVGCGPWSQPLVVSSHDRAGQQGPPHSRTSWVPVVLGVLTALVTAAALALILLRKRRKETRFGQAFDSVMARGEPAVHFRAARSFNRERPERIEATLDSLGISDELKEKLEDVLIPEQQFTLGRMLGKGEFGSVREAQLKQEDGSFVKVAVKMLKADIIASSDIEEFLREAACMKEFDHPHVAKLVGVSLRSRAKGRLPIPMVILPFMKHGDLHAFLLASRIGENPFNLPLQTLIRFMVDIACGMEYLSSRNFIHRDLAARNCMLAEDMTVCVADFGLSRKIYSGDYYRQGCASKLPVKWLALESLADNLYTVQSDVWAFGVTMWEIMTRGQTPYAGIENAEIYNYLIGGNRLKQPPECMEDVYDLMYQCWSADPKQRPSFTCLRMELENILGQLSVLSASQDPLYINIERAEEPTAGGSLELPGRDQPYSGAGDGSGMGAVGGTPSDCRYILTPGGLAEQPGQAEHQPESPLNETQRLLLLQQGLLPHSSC
Put plainly: LanthaScreen Eu kinase binding assay, TYRO3. The following applies: Tracer 236. Here is the method: as §1, §2, §3, §4, §5

The next assay has as its target T4, Met (Homo sapiens, UniProt P08581).
T4 construct: purchased Life Technologies
Put plainly: LanthaScreen Eu kinase binding assay, Met. The following applies: Tracer 236, read-out: cMet kinase binding activity (Kd). The method, then:
as §1, §2, §3, §4, §5

Structures are written as SMILES.

T4 sequence (P08581 25-1390): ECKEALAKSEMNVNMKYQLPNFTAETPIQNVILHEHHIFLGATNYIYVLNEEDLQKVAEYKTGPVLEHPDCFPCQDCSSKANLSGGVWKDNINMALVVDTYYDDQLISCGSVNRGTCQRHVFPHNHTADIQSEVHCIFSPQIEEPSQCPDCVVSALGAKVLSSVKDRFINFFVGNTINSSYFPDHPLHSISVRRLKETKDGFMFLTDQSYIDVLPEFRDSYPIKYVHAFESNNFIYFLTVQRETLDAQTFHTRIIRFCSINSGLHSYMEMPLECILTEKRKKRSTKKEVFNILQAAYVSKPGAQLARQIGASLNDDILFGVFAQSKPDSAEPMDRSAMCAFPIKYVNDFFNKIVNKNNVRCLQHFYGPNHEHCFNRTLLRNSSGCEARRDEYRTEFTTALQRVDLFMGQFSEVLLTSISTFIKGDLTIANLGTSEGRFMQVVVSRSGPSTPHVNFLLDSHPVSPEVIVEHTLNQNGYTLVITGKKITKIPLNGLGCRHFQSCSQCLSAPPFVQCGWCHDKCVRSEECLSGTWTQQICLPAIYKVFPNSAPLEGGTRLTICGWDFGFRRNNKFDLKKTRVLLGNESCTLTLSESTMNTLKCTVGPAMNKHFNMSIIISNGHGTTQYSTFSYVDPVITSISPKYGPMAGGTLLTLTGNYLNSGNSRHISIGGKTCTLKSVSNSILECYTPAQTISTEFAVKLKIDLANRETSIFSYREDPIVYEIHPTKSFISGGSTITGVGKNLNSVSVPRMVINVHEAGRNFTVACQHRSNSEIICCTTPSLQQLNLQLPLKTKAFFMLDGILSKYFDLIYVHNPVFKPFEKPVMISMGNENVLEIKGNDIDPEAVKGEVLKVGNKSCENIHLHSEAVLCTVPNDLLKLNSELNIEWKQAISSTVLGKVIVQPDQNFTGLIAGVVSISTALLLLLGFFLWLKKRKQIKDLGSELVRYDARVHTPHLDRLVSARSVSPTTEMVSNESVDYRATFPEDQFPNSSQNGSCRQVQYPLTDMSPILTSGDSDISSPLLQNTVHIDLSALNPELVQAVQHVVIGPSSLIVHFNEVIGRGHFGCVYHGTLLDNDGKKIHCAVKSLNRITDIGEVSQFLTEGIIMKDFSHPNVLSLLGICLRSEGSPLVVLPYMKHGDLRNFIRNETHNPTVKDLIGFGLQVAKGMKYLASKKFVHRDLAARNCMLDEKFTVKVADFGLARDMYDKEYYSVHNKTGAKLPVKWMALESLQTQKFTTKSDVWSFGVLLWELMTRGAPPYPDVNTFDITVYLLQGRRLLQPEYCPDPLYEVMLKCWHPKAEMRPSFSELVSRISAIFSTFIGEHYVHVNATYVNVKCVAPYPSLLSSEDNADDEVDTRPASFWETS

For `CCOc1cn(-c2ccc(C#N)nc2)nc1C(=O)Nc1ccc(Oc2ccnc3cc(OC)c(OC)cc23)cn1` [Compound 50], the Kd (in general, the free concentration of one partner at which half of the binding sites on the other are occupied at equilibrium, for simple one-to-one binding) on Mer was not below 1000 nM; on Axl, 100 to 1000 nM; on TYRO3, not below 1000 nM; on Met, not below 1000 nM.

Take `CCOc1cnn(-c2ccc(C#N)nc2)c1C(=O)Nc1ccc(Oc2ccnc3cc(OC)c(OC)cc23)cn1` [Compound 53]: the equilibrium dissociation constant (Kd) on Mer, at Axl, at TYRO3 and on Met was not below 1000 nM in each case.

For `CCC(C)Oc1cc2nccc(Oc3ccc(NC(=O)c4nn(-c5cnc(N)nc5)cc4OCC(F)(F)F)nc3)c2cc1OC` (stereo not drawn) [Compound 235], the Kd is less than 100 nM on Mer, less than 100 nM on Axl, less than 100 nM on TYRO3 and 100 to 1000 nM on Met.

On to `CCOc1cn(-c2cnc(C(=O)O)nc2)nc1C(=O)Nc1ccc(Oc2ccnc3cc(OC)c(OC)cc23)cn1` [Compound 88], for which the dissociation constant Kd at Mer was 100 to 1000 nM; at Axl it was not below 1000 nM; on TYRO3, not below 1000 nM; at Met it was 100 to 1000 nM.

Take `CCOc1cnn(C2CCN(C)CC2)c1C(=O)Nc1ccc(Oc2ccnc3cc(OC)c(OC)cc23)cc1F` [Compound 223]: the Kd at Mer was 100 to 1000 nM; on Axl, not below 1000 nM; at TYRO3, not below 1000 nM; at Met it was not below 1000 nM.

As to `CCOc1cn(-c2cnc(N)cc2C)nc1C(=O)Nc1ccc(Oc2ccnc3cc(OC)c(OC)cc23)cn1` [Compound 137], the Kd is less than 100 nM on Mer, less than 100 nM at Axl, 100 to 1000 nM at TYRO3 and less than 100 nM at Met.

As for `CCOc1cn(-c2cncc(C(F)(F)F)n2)nc1C(=O)Nc1ccc(Oc2ccnc3cc(OC)c(OC)cc23)cn1` [Compound 164], the Kd at Mer is less than 100 nM; on Axl, 100 to 1000 nM; at TYRO3, not below 1000 nM; at Met, 100 to 1000 nM.

With `CCOc1cn(-c2cnc(F)cn2)nc1C(=O)Nc1ccc(Oc2ccnc3cc(OC)c(OC)cc23)cn1` [Compound 171], the dissociation constant Kd at Mer is less than 100 nM; at Axl, less than 100 nM; at TYRO3, 100 to 1000 nM; on Met, less than 100 nM.

In the case of `CCOc1cn(CC2CCNCC2)nc1C(=O)Nc1ccc(Oc2ccnc3cc(OC)c(OC)cc23)cc1F` [Compound 218], the equilibrium dissociation constant (Kd) on Mer, at Axl, at TYRO3 and at Met was 100 to 1000 nM in each case.

Consider `CCOc1cnn(CCc2cccnc2)c1C(=O)Nc1ccc(Oc2ccnc3cc(OC)c(OC)cc23)cn1` [Compound 95], for which the equilibrium dissociation constant (Kd) was less than 100 nM on Mer, 100 to 1000 nM on Axl, 100 to 1000 nM on TYRO3 and less than 100 nM at Met.

Regarding `COc1cc2nccc(Oc3ccc(NC(=O)c4nn(-c5cc(F)ccc5Cl)cc4OCC(F)(F)F)nc3)c2cc1OC` [Compound 279], the dissociation constant (Kd) on Mer, on Axl, on TYRO3 and at Met was less than 100 nM in each case.

Regarding `CCOc1cnn(CCn2cccn2)c1C(=O)Nc1ccc(Oc2ccnc3cc(OC)c(OC)cc23)cn1` [Compound 42], the dissociation constant Kd at Mer is less than 100 nM; at Axl, 100 to 1000 nM; on TYRO3, not below 1000 nM; on Met it was 100 to 1000 nM.

Regarding `CCOc1cn(-c2cnccc2C#N)nc1C(=O)Nc1ccc(Oc2ccnc3cc(OC)c(OC)cc23)cn1` [Compound 147], the dissociation constant Kd at Mer, at Axl, at TYRO3 and on Met was less than 100 nM throughout.

As for `CCOc1cn(-c2cncnc2)nc1C(=O)Nc1ccc(Oc2ccnc3cc(OC)c(OC)cc23)cn1` [Compound 2], the dissociation constant Kd at Mer, on Axl, at TYRO3 and on Met was less than 100 nM each time.

Take `COc1cc2nccc(Oc3ccc(NC(=O)c4nn(-c5ccc(F)c(Cl)c5)cc4OCC(F)(F)F)nc3)c2cc1OC` [Compound 278]: the equilibrium dissociation constant (Kd) on Mer is less than 100 nM; at Axl it was less than 100 nM; on TYRO3, 100 to 1000 nM; at Met, 100 to 1000 nM.

Regarding `CCOc1cn(-c2ncc(N)nc2C)nc1C(=O)Nc1ccc(Oc2ccnc3cc(OC)c(OC)cc23)cn1` [Compound 143], the dissociation constant (Kd) at Mer, on Axl, at TYRO3 and on Met was less than 100 nM each time.

In the case of `CCOc1cn(CC2CCN(C)CC2)nc1C(=O)Nc1ccc(Oc2ccnc3cc(OC)c(OC)cc23)cc1F` [Compound 219], the Kd on Mer, at Axl, at TYRO3 and at Met was 100 to 1000 nM in each case.

Regarding `CCOc1cn(CCC(=O)O)nc1C(=O)Nc1ccc(Oc2ccnc3cc(OC)c(OC)cc23)cn1` [Compound 63], the Kd at Mer, at Axl, at TYRO3 and on Met was 100 to 1000 nM each time.

The values above are taken from patent US10934274B2, “Quinoline derivatives as TAM RTK inhibitors” (Qurient Co., Ltd., priority 2015, dated 2021).
